Values after ≈ are worked out from the molar mass of the structure shown. Where two headings read alike, the source gives them in different places.
Columns and labels:
[1] = general population pharmacokinetic (PPK) model, all patients; format: in vivo, human; parameters: AUC: concentration or dose not given beside the values; conditions: for AUC / clearance: general PPK model, mean ± SD (range)
Experimental: The patients for the general PPK model came from a single-center, and the study was conducted from June 2014 to June 2019 at the First Affiliated Hospital of Xi’an Jiaotong University. Patients who had been diagnosed with confirmed or probable candidiasis and been treated with caspofungin were included in the study. The identification of infection was according to the IFIs Cooperative Group and the National Institute of Allergy and Infectious Diseases Mycoses Study Group criteria ([De Pauw et al., 2008]). All patients were divided into four groups (ICU patients, SOT patients, HEMT patients, and other patients from respiratory department). Caspofungin was administered intravenously over 1 h. Most of the patients received the standard dosage regimen of 70/50 mg. Patients with hepatic insufficiency (Child-Pugh B) received a reduced dosage regimen of 70/35 mg and patients with body weight (WT) > 75 kg received an increased dosage regimen of 70/70 mg. The study protocol was approved by the institutional review board of the teaching hospital (No.XJTU1AF2017LSK-28). All subjects signed the informed consent before any screening item being performed. History of hypersensitivity, severe intolerance to caspofungin, other constituents change resulted from caspofungin, age <18 years and pregnancies were excluded in the study.
Factors which may influence the PK parameters of caspofungin were collected for the patients of the general PPK model from the teaching hospital. The factors included demographic factors (sex, age and WT); medical characteristics [carrier mediated transportation (CMT), surgical operation (SOP), baseline disease, organ support therapy]; laboratory data [red blood cells, hemoglobin, hematocrit, white blood cell, lymphocyte, neutrophile, platelets, alanine aminotransferase, aspartate transaminase, alkaline phosphatase, gamma-glutamyl transpeptidase, total bilirubin, albumin (ALB), blood urea nitrogen, uric acid, serum creatinine acid, creatinine clearance rate]; concomitant medications (immunosuppressants, glucocorticoid, antimicrobial agents and antivirals) and other related factors. Because we could not obtain all values of ICU patients for the seven literature studies, only factors which may have a great influence on the PK of caspofungin, such as sex, age, WT, dosage and method of administration, ALB concentrations and whether concomitant continuous renal replacement therapy (CRRT) of ICU patients from the teaching hospital and other seven studies were collected for the construction of the ICU-subgroup PPK model. The selection criteria were based on the results obtained from previous studies of factors influencing the caspofungin plasma concentration ([Spriet et al., 2009]; [Spriet et al., 2011]; [Weiler et al., 2013]; [Muilwijk et al., 2014]; [Sinnollareddy et al., 2015]; [Roger et al., 2017]; [van der Elst et al., 2017]). […] Combined with the clinical situation, the ALB and WT were converted into dichotomous variables according to whether the ALB <35 g/L or ≥35 g/L and whether the WT < 70 kg or ≥70 kg, respectively.
We collected the pooled data of caspofungin plasma samples from patients at the teaching hospital who received caspofungin prevention or treatment therapies from June 2014 to June 2019. Caspofungin plasma C min samples were collected at interval windows of 22–24 h post-dose, while other caspofungin plasma samples were collected at interval windows of 0–12 h and 12–22 h post-dose. The caspofungin plasma concentrations from the other seven studies of ICU patients—which included both dense sampling and sparse sampling—were directly collected from the relevant published papers, and all related caspofungin plasma concentrations were collected ([Spriet et al., 2009]; [Spriet et al., 2011]; [Weiler et al., 2013]; [Muilwijk et al., 2014]; [Sinnollareddy et al., 2015]; [Roger et al., 2017]; [van der Elst et al., 2017]). […]

[2] = healthy subjects; ref Stone et al., 2002; cited from earlier work
Source text: Van den Elst et al. found the caspofungin exposure in ICU patients was low compared with that in healthy volunteers and other (non)critically ill patients ([van der Elst et al., 2017]). Many factors could influence the caspo ...

ALB = conditions: cited from earlier work
Source text: The final general and ICU-subgroup PPK models of caspofungin were used for the simulation study to evaluate the degree of exposure. A MCS method published before ([Pfaller et al., 2006]) was used for analyzing the probability of target attainment (PTA) and cumulative fraction of response (CFR) following various caspofungin dosage regimens in all patients and ICU patients. […] Caspofungin was extensively bound to ALB (97%) ([Stone ...

C. albicans = conditions: ref Li et al., 2013; cited from earlier work
Source text: (§1) The first goal of this study was to determine whether the contemporary dosage regimens for caspofungin can achieve the target PK/PD index against Candida isolates in all patients and especially in ICU patients. […] At present, the relationship between caspofungin Cmax and toxicity remains poorly clarified ([Kim et al., 2022]). In this study, we only used the fAUC/MIC as caspofungin PK/PD target for we could get th ...

C. glabrata = conditions: ref Li et al., 2013; cited from earlier work
Source text: as §1

C. parapsilosis = conditions: ref Li et al., 2013; cited from earlier work
Source text: as §1

[3] = cited from earlier work
Source text: Van den Elst et al. found the caspofungin exposure in ICU patients was low compared with that in healthy volunteers and other (non)critically ill patients ([van der Elst et al., 2017]).

[4] = cited from earlier work; remark: listed apart in the source
Source text: Safety also needs to be considered when increasing the caspofungin exposure, because any harm to the patient should be minimal.

[5] = all patients n = 299, final model
[6] = human, plasma, iv, ICU patients of the teaching hospital
[7] = human, plasma, iv, all patients n = 299
[8] = human, plasma, iv, hematopathy patients
[9] = human, plasma, iv, other patients
[10] = human, plasma, iv, transplant (SOT) patients

## CC[C@H](C)C[C@H](C)CCCCCCCCC(=O)N[C@H]1C[C@@H](O)[C@@H](NCCN)NC(=O)[C@@H]2[C@@H](O)CCN2C(=O)[C@H]([C@H](O)CCN)NC(=O)[C@H]([C@H](O)[C@@H](O)c2ccc(O)cc2)NC(=O)[C@@H]2C[C@@H](O)CN2C(=O)[C@H]([C@@H](C)O)NC1=O [caspofungin]
[1]; [5]
  θ1, typical population value of CL: 0.32 L/h
  θ4, influence of ALB (<35 g/L) on V: 0.49
  θ6, influence of WT (≥70 kg) on V: 0.24
[1]; all patients, bootstrap, lower boundary of 95% CI
  θ4, influence of ALB (<35 g/L) on V: 0.25
[1]; all patients, bootstrap, upper boundary of 95% CI
  θ4, influence of ALB (<35 g/L) on V: 0.73
[1]; [6]
  AUC: 101 µg·h/mL
  clearance: 7.83 mL/min
[1]; [7]
  AUC: 126 µg·h/mL
  clearance: 7 mL/min
[1]; [8]
  AUC: 118 µg·h/mL
  clearance: 7.5 mL/min
[1]; [9]
  AUC: 120 µg·h/mL
  clearance: 6.83 mL/min
[1]; [10]
  AUC: 136 µg·h/mL
  clearance: 6.67 mL/min
[1]; human, plasma, iv, all patients n = 299, final model, read-out: θ2, typical population value of V
  Vd: 13.3 L
[2]
  plasma trough concentration (C min), range: 1120 to 1780 ng/mL
ALB; ref Stone et al., 2004
  bound to ALB: 97%
ALB; used to calculate free drug concentrations in the simulation, ref Andes et al., 2010
  protein binding value: 97%
C. albicans
  MIC, mean: 0.19 µg/mL (≈ 0.174 µM)
  MIC, range: 0.032 to 0.38 µg/mL
C. glabrata
  MIC, mean: 0.25 µg/mL (≈ 0.229 µM)
  MIC, range: 0.047 to 0.38 µg/mL
C. parapsilosis
  MIC, mean: 1.5 µg/mL (≈ 1.37 µM)
  MIC, range: 0.38 to 2 µg/mL
[3]; ICU patients, day 1, ref Borsuk-De Moor et al., 2020
  CL, typical value: 0.563 L/h
[3]; ICU patients, day 2, ref Borsuk-De Moor et al., 2020
  CL, typical value: 0.737 L/h
[3]; ICU patients, day 3, ref Borsuk-De Moor et al., 2020
  CL, typical value: 1.01 L/h
[3]; ICU patients, increasing clearance with subsequent doses, ref Borsuk-De Moor et al., 2020
  decrease in caspofungin exposure: > 20%
[3]; ICU patients, ref Martial et al., 2016
  CL: 0.55 L/h
[3]; critically-ill Chinese patients, ref Li et al., 2021
  CL: 0.32 L/h
[3]; general patients, ref Wurthwein et al., 2012
  CL: 0.46 L/h
[3]; general patients, ref Wurthwein et al., 2013
  CL: 0.40 L/h
[4]; 150 mg daily for a median of 24.5 days, ref Cornely et al., 2011
  tolerability: well tolerated without dose-limiting toxicity
[4]; patients with invasive candidiasis, 150 mg daily, mean duration 14.2 days, ref Betts et al., 2009
  tolerability: well tolerated

Source: article PMC9669616, “The recommended dosage regimen for caspofungin in patients with higher body weight or hypoalbuminaemia will result in low exposure: Five years of data based on a population pharmacokinetic model and Monte-Carlo simulations” (Frontiers in Pharmacology, 2022)
